The values that follow are results of earlier work, collected in patent EP2090292A1, “Means and methods for controlling commensales” (B.R.A.I.N. Biotechnology Research and Information Network AG, priority 2008, dated 2009).

This data set has as its system Gram-positive and Gram-negative bacteria. The settings on record: prior art, Torres et al. (1998); biofilm not assayed.

Entries after “also recorded” stand apart in the source; their conditions may differ.

`CC1OC(=O)C(C2OC2C)=CC1O` (stereo not shown) [aspyrone, 6-Dihydro-5-hydroxy-6-methyl-3-(3-methyloxiranyl)-2H-pyran-2-one]: the “inhibitory activity against Gram-positive and Gram-negative bacteria” value is “weak inhibitory activity; also recorded: weak to negligible activity”.
